Assay results taken from patent US6667387B1, “HCV core peptides” (priority 1992, dated 2003).
Ends that are not written are not given here. * marks the point of attachment. Biotin = O=C1N[C@H]2[C@H](CS[C@H]2CCCCC(=O)*)N1

How the values were obtained:
Format in all cases: binding, human
[1] = tested on: antibodies in antisera from HIV-1 infected persons; assay: ELISA with HIV-1 antibody-positive sera (biotinylated peptides on streptavidin- or avidin-coated plates, unbiotinylated peptides coated directly)
Experimental: (§1) Where peptides were to be coated directly, stock solutions of the peptides were diluted in sodium carbonate buffer, pH 9.6 and used to coat polystyrene microtiter plates at a peptide concentration of 2 to 5 micrograms per milliliter for 1 hour at 37° C.
(§2) In cases where biotinylated peptides were to be evaluated, plates were first coated with streptavidin in sodium carbonate buffer, pH 9.6 at a concentration of 3 micrograms per milliliter for 1 hour at 37° C. The plates were then washed to remove excess, unbound protein. A working solution of the biotinylated peptide at 1 microgram per milliliter in sodium carbonate buffer was then added to the wells of the microtiter plate and incubated for 1 hours at 37° C.
(§3) Once the plates had been coated with antigen, any remaining free binding sites on the plastic were blocked with casein. After washing, a dilution of the appropriate antisera, usually 1:100, was added to the wells of the plates and incubated for 1 hour at 37° C.
(§4) After washing to remove unbound material, specific antibody binding was detected by incubating the plates with goat anti-human immunoglobulin antibodies conjugated to the enzyme horseradish peroxidase. Following removal of unbound conjugate by washing, a solution containing H2O2 and 3,3′,5,5′-tetramethylbenzidine was added.
(§5) Reactions were stopped after a suitable interval by addition of sulfuric acid. […] Absorbance measurements were made at a wavelength of 450 nanometers and all data are expressed as an optical density value at this wavelength.
Experiments were performed to evaluate antibody recognition of short, 10 amino acid-long, N-acetylated peptides corresponding to other contained within the transmembrane proteins of HIV-1 and HIV-2. […] The peptides used for the comparison were as follows:
Antibody binding to these peptides was compared to antibody binding to the unibiotinylated peptides which were coated directly onto microtiter plates.
In order to evaluate antibody recognition of these two peptides, the peptides were bound individually to streptavidin-coated microtiter plates and tested using a panel of antisera from HIV-1 seropositive donors.
(§6) To determine how well biotinylated peptides would function in a mixture when bound to streptavidin- or avidin-coated plates, two mixtures were made of the N-terminally biotinylated versions of the HIV-1 peptides TM-HIV-1 (hereabove referred to as 1a.1) and V3-nm (hereabove referred to as 1b.4), the HIV-2 peptide TM-HIV-2 (hereabove referred to as 2a), and the hepatitis C virus peptides II, IX, and XVIII. Mixture A contained each of the six biotinylated peptides at a concentration of 1 microgram per milliliter (6 micrograms per milliliter peptide, total) while in mixture B, each peptide was present at a concentration of 0.1 microgram per milliliter (0.6 microgram per milliliter peptide, total). The individual peptides were coated at a concentration of 1 microgram per milliliter. For purposes of comparison, mixtures A and B were also coated directly onto the wells of a microtiter plate. Samples from HIV-1, HIV-2, and HCV-seropositive donors were tested and compared to sera from seronegative blood donors. A cut-off absorbance value of 0.250 was used to determine whether a reaction was positive or negative. Absorbance values equal or greater than 0.250 were considered positive while absorbance values below this value were considered negative.
A spacer consisting of two glycine residues was added to the amino terminus.

[2] = tested on: antibodies in antisera from HIV-2 infected persons; assay: ELISA with HIV-2 antibody-positive sera (biotinylated peptides on streptavidin- or avidin-coated plates, unbiotinylated peptides coated directly)
Experimental: as §1, §2, §3, §4, §5
The biotinylated peptides were loaded onto microtiter plates which had been coated with streptavidin. Antibody binding to these peptides was compared to antibody binding to the unibiotinylated peptides which were coated directly onto microtiter plates. It is evident that the biotinylated peptides from the HIV-1 or HIV-2 transmembrane proteins bound to streptavidin are recognized very well by antisera from HIV-1 or HIV-2 infected persons respectively. This is in contrast to the unbiotinylated versions of these peptides coated directly onto the polystyrene plates.
as §6
Two glycine residues were added at the N-terminus of each peptide to serve as a spacer and a biotin was coupled to the α-amino group of the resulting N-terminal glycine. The peptides were bound to streptavidin and coated in the wells of microwell plates. HIV-2 antibody-positive sera were used to evaluate these two peptides in an ELISA.

[3] = tested on: HIV-1 anti-V3 loop antibodies in sera; assay: Line immunoassay (LIA) with HIV-1 gp120 V3 loop peptides; conditions: for recognition of peptide, % of sera: Table 15
Source text: In order to determine the general diagnostic value of the V3 loop region of gp120, nine peptides derived from this region of nine different HIV-1 isolates were synthesized and included in a LIA. All nine peptides were provided with a Gly-Gly spacer and an N-terminal biotin. The aligned peptides (one-letter amino acid code) sequences are as follows: (SEQ ID NOs: 154-162, respectively)
The peptides were mixed with streptavidin in a slight molar excess over biotin binding sites and the peptide:streptavidin complexes were separated from unbound material over Sephadex G-25. Material eluting in the void volume was used in the preparation of the LIA.
A total of 332 sera were tested which had been obtained from various geographical regions. […] The reactions of the various lines were evaluated as positive (i) or negative (o) (data not shown).
In total, 307 of the 332 sera gave a reaction to at least one peptide on the V3-loop LIA. […] The total number of positive sera tested was therefore 326. […] There were, however, significant geographical differences.

[4] = Table 8, serum 3990 (HIV-1), Avidin
[5] = Table 8, serum DV (HIV-1), Avidin
[6] = Table 8, serum PL (HIV-1), Avidin
[7] = Table 8, serum YS (HIV-1), Avidin
[8] = Table 8, serum 1400 (HIV-2), Avidin
[9] = Table 8, serum AG (HIV-2), Avidin
[10] = Table 14, HIV-V3 positive sera, 307
[11] = Table 14, gp120 positive sera, COUNT 326

Substance: Bio-Gly-Gly-Gly-Ile-Trp-Gly-Cys-Ser-Gly-Lys-Leu-Ile-Cys-NH2 (Biotin-GGGIWGCSGKLIC-NH2; cysteine pairing not given here) [TM-HIV-1 Bio]
- optical density (450 nm) ([1]; Table 1, serum 0724, HIV-1 positive): 2.570
- optical density (450 nm) ([1]; Table 1, serum PL, HIV-1 positive): 1.559
- optical density (450 nm) ([1]; Table 1, serum VE, HIV-1 positive): 2.551
- optical density (450 nm) ([1]; Table 1, serum YEMO, HIV-1 positive): 2.357
- optical density (450 nm) ([1]; Table 1, serum mm, HIV-1 positive): 2.579
- optical density (450 nm) ([1]; Table 6, serum 0369/87, HIV positive): 2.042
- optical density (450 nm) ([1]; Table 6, serum 0724, HIV positive): 2.291
- optical density (450 nm) ([1]; Table 6, serum 1164, HIV positive): 1.919
- optical density (450 nm) ([1]; Table 6, serum 1252, HIV positive): 2.356
- optical density (450 nm) ([1]; Table 6, serum 2049, HIV positive): 2.058
- optical density (450 nm) ([1]; Table 6, serum 3990, HIV positive): 1.870
- optical density (450 nm) ([1]; Table 6, serum 4436, HIV positive): 2.110
- optical density (450 nm) ([1]; Table 6, serum 4438, HIV positive): 1.697
- optical density (450 nm) ([1]; Table 6, serum DV, HIV positive): 1.579
- optical density (450 nm) ([1]; Table 6, serum MM, HIV positive): 2.308
- optical density (450 nm) ([1]; Table 6, serum OOST 6, HIV positive): 2.003
- optical density (450 nm) ([1]; Table 6, serum OOST 7, HIV positive): 2.027
- optical density (450 nm) ([1]; Table 6, serum OOST 8, HIV positive): 2.237
- optical density (450 nm) ([1]; Table 6, serum OOST 9, HIV positive): 2.222
- optical density (450 nm) ([1]; Table 6, serum PL, HIV positive): 1.849
- optical density (450 nm) ([1]; Table 6, serum VCM, HIV positive): 2.263
- optical density (450 nm) ([1]; Table 6, serum VE, HIV positive): 2.240
- optical density (450 nm) [1, 4]: 1.602
- optical density (450 nm) [1, 5]: 1.329
- optical density (450 nm) [1, 6]: 1.974
- optical density (450 nm) [1, 7]: 0.046
- optical density (450 nm) ([2]; Table 1, serum 53-3, HIV-2 positive): 0.000
- optical density (450 nm) ([2]; Table 1, serum 1400, HIV-2 positive): 0.000
- optical density (450 nm) ([2]; Table 1, serum AG, HIV-2 positive): 0.000
- optical density (450 nm) [2, 8]: 0.051
- optical density (450 nm) [2, 9]: 0.054

Substance: Bio-Gly-Gly-Tyr-Asn-Lys-Arg-Lys-Arg-Ile-His-Ile-Gly-Pro-Gly-Arg-Ala-Phe-Tyr-Thr-Thr-Lys-Asn-Ile-Ile-Gly-NH2 (Biotin-GGYNKRKRIHIGPGRAFYTTKNIIG-NH2) [V3-mn Bio]
- optical density (450 nm) ([1]; Table 2, sample 266): 2.591
- optical density (450 nm), off scale ([1]; Table 2, sample 3990): overflow* (Absorbance value greater than 3.000)
- optical density (450 nm) ([1]; Table 2, sample 4436): 2.268
- optical density (450 nm) ([1]; Table 2, sample 4438): 2.554
- optical density (450 nm) ([1]; Table 2, sample DV): 2.881
- optical density (450 nm) ([1]; Table 2, sample MM): 2.542
- optical density (450 nm), off scale ([1]; Table 2, sample OOST 4): overflow* (Absorbance value greater than 3.000)
- optical density (450 nm) ([1]; Table 2, sample OOST 6): 2.355
- optical density (450 nm), off scale ([1]; Table 2, sample OOST 8): overflow* (Absorbance value greater than 3.000)
- optical density (450 nm) ([1]; Table 2, sample PL): 2.351
- optical density (450 nm), off scale ([1]; Table 2, sample VE): overflow* (Absorbance value greater than 3.000)
- optical density (450 nm) ([1]; Table 2, sample YS): 2.784
- optical density (450 nm) ([1]; Table 3, serum 3990, peptide bound to avidin): 1.854
- optical density (450 nm) ([1]; Table 3, serum 3990, peptide bound to streptavidin): 1.391
- optical density (450 nm) ([1]; Table 3, serum 4436, peptide bound to avidin): 1.519
- optical density (450 nm) ([1]; Table 3, serum 4436, peptide bound to streptavidin): 0.596
- optical density (450 nm) ([1]; Table 3, serum DV, peptide bound to avidin): 1.748
- optical density (450 nm) ([1]; Table 3, serum DV, peptide bound to streptavidin): 1.041
- optical density (450 nm) ([1]; Table 3, serum PL, peptide bound to avidin): 0.983
- optical density (450 nm) ([1]; Table 3, serum PL, peptide bound to streptavidin): 0.222
- optical density (450 nm) ([1]; Table 3, serum VE, peptide bound to avidin): 1.908
- optical density (450 nm) ([1]; Table 3, serum VE, peptide bound to streptavidin): 1.526
- optical density (450 nm) ([1]; Table 3, serum YS, peptide bound to avidin): 1.721
- optical density (450 nm) ([1]; Table 3, serum YS, peptide bound to streptavidin): 1.236
- optical density (450 nm) [1, 4]: 2.319
- optical density (450 nm) [1, 5]: 2.340
- optical density (450 nm) [1, 6]: 1.321
- optical density (450 nm) [1, 7]: 2.201
- optical density (450 nm) [2, 8]: 0.055
- optical density (450 nm) [2, 9]: 0.068
- % Reactive [3, 10]: 90%
- Total SUM (reactive sera), printed on the line COUNT [3, 10]: 275
- % Reactive [3, 11]: 84%
- Total SUM (reactive sera) [3, 11]: 275
- recognition of peptide, % of sera ([3]; AFRICAN sera): 85%
- recognition of peptide, % of sera ([3]; BRAZILIAN sera): 78%
- recognition of peptide, % of sera ([3]; EUROPEAN sera): 97%

Substance: ETWKKPDYEPPVVHGCPLPP
- optical density (450 nm) [1, 4]: 0.056
- optical density (450 nm) [1, 5]: 0.047
- optical density (450 nm) [1, 6]: 0.052
- optical density (450 nm) [1, 7]: 0.049
- optical density (450 nm) [2, 8]: 1.362
- optical density (450 nm) [2, 9]: 0.058

Substance: IIPDREVLYREFDEMEECSQ
- optical density (450 nm) [1, 4]: 0.066
- optical density (450 nm) [1, 5]: 0.049
- optical density (450 nm) [1, 6]: 0.056
- optical density (450 nm) [1, 7]: 0.049
- optical density (450 nm) [2, 8]: 0.052
- optical density (450 nm) [2, 9]: 0.064

Substance: PQRKTKRNTNRRPQDVKFPG
- optical density (450 nm) [1, 4]: 0.054
- optical density (450 nm) [1, 5]: 0.047
- optical density (450 nm) [1, 6]: 0.052
- optical density (450 nm) [1, 7]: 0.048
- optical density (450 nm) [2, 8]: 0.121
- optical density (450 nm) [2, 9]: 0.081
